Where a name gives a salt, the structure may show the parent alone. Read-outs that look alike come from different tables or passages of the source.
Columns and labels:
[1] = test system: inflammatory cells in the BALF; experiment: Asthma model: BALF cellularity and cell differentials; type: in vivo, Balb/c mice; details: i.t. HCl or HOAc, i.p. NaOH, every other day x3; day 3 after final challenge; saline 3.06×10^6
Raji cells = experiment: In vitro treatment of Raji tumor cells in FBS
Method: (§1) Jurkat and Raji tumor cell lines were maintained in Complete RPMI-1640 Medium (RPMI-1640 plus 1× GlutaMAX, 100 U/ml Pen-Strep (Gibco Life Technologies, Grand Island, N.Y., USA), and 5% heat-inactivated fetal bovine serum (FBS) (Atlanta Biologicals, Flowery Branch, Ga., USA)) at 37° C. and 5% CO2. The tumor cells were washed 3 times with saline plus 1% FBS before in vitro treatments with saline or saline plus pH modifiers.
(§2) For studies of the effects of pH modifier on proliferating cells, primary thymocytes or lymph node cells (4×10^6 cells/ml) were incubated in FBS comprising 10% of saline or 87.5 mM HCl, HOAc or NaOH prepared in saline in 37° C. water bath for 5 hours before analyses. The tumor cells (2×10^6 cells/ml) were incubated in FBS comprising 10% saline or 87.5 mM HCl, HOAc, or NaOH prepared in saline in 37° C. water bath for 3-5 hours.
Cells were washed 3 times with PBS then stained with Zombie viability dyes at room temperature for 20 minutes. At the end of incubation, 10% volume of FBS was added to absorb excess Zombie dyes. […] 7-AAD was added to the cells before analyzed by flow cytometry. […] Stained and unstained cells were analyzed on Accuri C6 Flow Cytomer (Accuri Cytometers, Inc., Ann Arbor, Mich.), FACS Canto (BD Bioscience, San Jose, Calif., USA) and Attune™ cytometer (Invitrogen, Carlsbad, Calif.). […]

[2] = test system: CD4 T cells in BALF and MLN; details: for Treg cells, % of total CD4 T cells, BALF: saline 7.46%; for Treg cells, % of total CD4 T cells, MLN: saline 11.80%
Method: (92, 93). […] For challenge, 2× concentrated solution was prepared by mixing 100 μg OVA protein and 1 μg […] peptide (Molecular Resources, Fort Collins, Colo., USA) in 30 μl saline per mouse, and kept on ice. Immediately before i.t. (intratracheal) injection the 30 μl 2×OVA solution was mixed with equal volume of 2× treatment solution (350 mM HOAc or HCl in saline) and instilled into the trachea of the mouse. The mice were challenged every other day for a total of 3 times.
The total mixture (60 μl) was instilled into the trachea of the mouse. The mice were treated every other day for a total of 3 times.
(§3) Cells were washed 3 times with PBS then stained with Zombie viability dyes at room temperature for 20 minutes. At the end of incubation, 10% volume of FBS was added to absorb excess Zombie dyes. After washes, the cells were stained with conjugated antibodies against surface antigens on ice. As specified in some experiments, the cells were subsequently stained with fluorochrome-conjugated Avidin. For Annexin V staining, cells were washed twice with plain PBS and once with Annexin V binging buffer (10 mM HEPES, pH7.4, 140 mM NaCl, 2.5 mM CaCl2)) after surface antigen staining, and incubated with fluorochrome-conjugated Annexin V in Annexin V binding buffer for 15 min at room temperature. The cells were washed twice in Annexin V binding buffer and resuspended in Annexin V binding buffer. 7-AAD was added to the cells before analyzed by flow cytometry. For Ki-67 and Foxp3 staining, lymphocytes (after Zombie dye and surface antigen staining) or tumor cells (without surface antigen staining) were fixed and permeabilized using Foxp3 staining buffer kit, then stained with PE-conjugated anti-mouse or human Ki-67 antibodies. (Biolegend, San Diego, Calif., USA). Stained and unstained cells were analyzed on Accuri C6 Flow Cytomer (Accuri Cytometers, Inc., Ann Arbor, Mich.), FACS Canto (BD Bioscience, San Jose, Calif., USA) and Attune™ cytometer (Invitrogen, Carlsbad, Calif.). Data analyses were carried out using FlowJo X.

[3] = test system: white bone marrow (WBM) cells; details: for Ki-67hi cells in bone marrow B lineage (CD19+) cells: i.p. x3, 1 day after third treatment, saline 5.59%; for Ki-67hi cells in non-B lineage cells of non-granulocyte WBM cells: i.p. x3, saline 11.5%
Method: For all examples, treatments of the mice were carried out either by i.t. (intra-tracheal) instillation or i.p. injection. For i.t. instillation, 60 μl of treatment solution of saline or saline plus 175 mM HCl or HOAc was instilled into the trachea of a mouse using a pipet tip. For i.p. injection, 200 μl of saline or saline plus 87.5 mM HCl, HOAc or NaOH was injected into the peritoneal cavity of a mouse using a 26 or 27G needle. At the time of the first treatment the body weights of the mice ranged about 19 to 30 g.
as §3
Like lymph nodes, bone marrow is one of the most common sites for tumor metastasis. (106). In addition, primary tumors or tumor-like lesions can also occur in the bone. (107). […] In this example, C57BL/6 mice were treated with i.p. injection of saline, or saline plus HCl or HOAc every other day for 3 times. Bone marrow cells were extracted from both tibias 1 day after the third treatment for the study of B lineage cells, and for the studies of other cell types 3 days after the third i.p. treatment with saline or saline plus HOAc, and alternatively, mice received one i.t. injection of saline or saline plus HOAc, bone marrow was extracted from tibias the next day.

primary lymph node cells = experiment: In vitro treatment of primary lymph node cells in FBS, Ki-67; type: cell-based, mouse; details: 8.75 mM in FBS, 37° C., 5 hours
Method: as §2, §3
Thus, to assess the full potentials of the pH modifiers, in vitro experiments were carried out, in which primary lymph node cells were treated with saline or saline plus the pH modifiers in 100% FBS in 37° C. water bath. Such in vitro culture systems were designed to be free of interference by pH buffering agents in common tissue culture system. The final concentration of the pH modifiers in the in vitro cultures was set to be 8.75 mM.

Jurkat cells = test system: Jurkat cells
Method: as §1, §2
as §3, with “For Ki-67 and Foxp3 staining, lymphocytes (after Zombie dye and surface antigen staining) or tumor cells (without surface antigen staining) were fixed and permeabilized using Foxp3 staining buffer kit, then stained with PE-conjugated anti-mouse or human Ki-67 antibodies. (Biolegend, San Diego, Calif., USA).” left out, “Data analyses were carried out using FlowJo X.” left out

[4] = FBS with 10% of 87.5 mM modifier, 37° C., 3-5 hours, saline 73.4%

Question: What does the source list for Cl [HCl, hydrochloric acid]?
Answer: total inflammatory cells in the BALF (average) [1]: 1.07×10^6 per mouse; viability (live cells) of Raji cells (Raji cells; FBS with 10% of 87.5 mM modifier, 37° C., 3-5 hours, saline 89.4%): 49.2%; Treg cells, % of total CD4 T cells, BALF ([2]; BALF): 4.45%; Treg cells, % of total CD4 T cells, MLN [2]: 9.12%; Ki-67hi cells in bone marrow B lineage (CD19+) cells [3]: 2.83%; Ki-67hi cells in non-B lineage cells of non-granulocyte WBM cells [3]: 6.34%; Ki-67+ cells in live total lymphocytes, CD4, CD8 T cells and B cells (primary lymph node cells): almost eliminated all Ki-67^+; viability (live cells) of Jurkat cells (Jurkat cells; [4]): 22.1%

Question: CC(=O)O [HOAc, acetic acid] was tested. Which “total inflammatory cells in the BALF (average)” value [1] did it give?
Answer: 9.01×10^5 per mouse

Question: What about the “viability (live cells) of Raji cells” value (Raji cells; human, 8.75 mM) of the same compound?
Answer: 48.9%

Question: What about the “Treg cells, % of total CD4 T cells, BALF” value ([2]; BALF) of the same compound?
Answer: 7.18%

Question: What about the “Treg cells, % of total CD4 T cells, MLN” value [2] of the same compound?
Answer: 11.53%

Question: What about the “Ki-67hi cells in bone marrow T (CD3+) cells” value ([3]; i.p. treated, saline 4.21%) of the same compound?
Answer: 2.46%

Question: What about the “Ki-67hi HSC” value ([3]; i.p. treated, saline 11.1%) of the same compound?
Answer: no Ki-67^hi HSC were detected

Question: And the “Ki-67hi cells in erythroid (TER-119+) lineage cells” value ([3]; i.p. treated, saline 72.3%)?
Answer: 46.9%

Question: What about the “Ki-67hi cells in bone marrow B lineage (CD19+) cells” value [3] of the same compound?
Answer: 3.3%

Question: And the “Ki-67hi cells in non-B lineage cells of non-granulocyte WBM cells” value [3]?
Answer: 5.11%

Question: What about the “Ki-67hi cells in bone marrow T (CD3+) cells” value ([3]; i.t. treated, one injection, saline 4.88%) of the same compound?
Answer: 2.44%

Question: What about the “Ki-67hi HSC” value ([3]; i.t. treated, saline 5.56%) of the same compound?
Answer: no Ki-67^hi HSC were detected

Question: And the “Ki-67hi cells in erythroid (TER-119+) lineage cells” value ([3]; i.t. treated, saline 67.3%)?
Answer: 33.3%

Question: And the “Ki-67+ cells in live total lymphocytes, CD4, CD8 T cells and B cells” value (primary lymph node cells)?
Answer: almost eliminated all Ki-67^+

Question: What about the “viability (live cells) of Jurkat cells” value (Jurkat cells; human, 8.75 mM) of the same compound?
Answer: 34.3%

Question: Which “total inflammatory cells in the BALF (average)” value [1] does the source give for [Na+].[OH-] [NaOH, sodium hydroxide] here?
Answer: 2.18×10^6 per mouse

Question: And the “CD44+ cells in Foxp3- CD4 T cells, BALF” value ([2]; BALF)?
Answer: 80.6%

Question: And the “Treg cells, % of total CD4 T cells, BALF” value ([2]; BALF)?
Answer: 6.97%

Question: What about the “Treg cells, % of total CD4 T cells, MLN” value [2] of the same compound?
Answer: 11.46%

Question: And the “percentages of Ki-67+ cells in CD4 T cells and B cells vs saline” value (primary lymph node cells)?
Answer: nearly tripled

Question: And the “percentages of Ki-67+ cells in total lymphocytes and CD8 T cells vs saline” value (primary lymph node cells)?
Answer: more than tripled

Question: And the “viability (live cells) of Jurkat cells” value (Jurkat cells; [4])?
Answer: 70.4%

— patent US20230135127A1, “COMPOSITIONS AND METHODS FOR DISEASE TREATMENT AND PREVENTION BY PH MODIFIERS AND/OR CELL PROLIFERATION INHIBITORS” (priority 2021, published 2023)
